Assays:
Cytochrome P450 2C9 = Cytochrome P450 2C9 (Homo sapiens, UniProt P11712); settings: bti-tn-5b1-4; further: in other assays of this panel Not Active means under 50% inhibition at 10 µM
Insulin receptor = Insulin receptor (Rattus norvegicus, UniProt P15127); type: cell membranes, Wistar, Liver, Membrane; further: in other assays of this panel Not Active means under 50% inhibition at 10 µM
[1] = DRUGMATRIX: Sigma2 radioligand binding (ligand: [3H] Ifenprodil); type: cell membranes, Rattus norvegicus, Wistar, Brain, Membrane; settings: Not Active = under 50% inhibition at 10 µM
[2] = DRUGMATRIX: Phosphodiesterase PDE3 enzyme inhibition (substrate: [3H]cAMP + cAMP); type: tissue-based, Homo sapiens; settings: platelet; Not Active = under 50% inhibition at 10 µM
[3] = molecular target: T1, Type-2 angiotensin II receptor (Homo sapiens, UniProt P50052); type: cell-based; settings: cho-k1; further: in other assays of this panel Not Active means under 50% inhibition at 10 µM
T1 sequence (P50052 whole entry): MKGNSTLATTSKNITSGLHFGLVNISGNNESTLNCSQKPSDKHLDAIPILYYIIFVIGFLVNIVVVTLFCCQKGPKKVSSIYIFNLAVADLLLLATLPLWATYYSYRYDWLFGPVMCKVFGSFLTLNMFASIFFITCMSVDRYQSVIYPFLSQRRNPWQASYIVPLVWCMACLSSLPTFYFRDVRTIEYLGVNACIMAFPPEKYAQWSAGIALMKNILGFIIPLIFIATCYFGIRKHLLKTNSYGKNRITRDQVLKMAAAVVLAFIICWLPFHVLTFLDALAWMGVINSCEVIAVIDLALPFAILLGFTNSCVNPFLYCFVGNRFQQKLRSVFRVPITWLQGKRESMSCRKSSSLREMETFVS

[4] = molecular target: T2, Muscarinic acetylcholine receptor M4 (Homo sapiens, UniProt P08173); type: cell membranes, CHO-K1, Membrane; settings: cho-k1; further: in other assays of this panel Not Active means under 50% inhibition at 10 µM
T2 sequence (P08173 whole entry): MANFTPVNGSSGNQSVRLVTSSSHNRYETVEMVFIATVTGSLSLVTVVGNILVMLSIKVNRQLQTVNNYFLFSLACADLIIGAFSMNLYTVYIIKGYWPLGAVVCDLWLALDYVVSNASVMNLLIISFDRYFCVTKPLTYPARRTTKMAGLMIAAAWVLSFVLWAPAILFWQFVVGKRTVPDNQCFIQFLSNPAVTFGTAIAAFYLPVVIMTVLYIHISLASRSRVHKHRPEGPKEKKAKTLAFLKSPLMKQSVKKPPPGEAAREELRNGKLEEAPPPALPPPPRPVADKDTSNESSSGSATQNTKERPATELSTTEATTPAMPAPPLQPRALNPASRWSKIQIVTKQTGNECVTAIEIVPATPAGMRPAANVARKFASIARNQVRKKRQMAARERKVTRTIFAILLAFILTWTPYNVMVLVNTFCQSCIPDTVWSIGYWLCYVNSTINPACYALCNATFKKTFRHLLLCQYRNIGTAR

Sequence of Insulin receptor (P15127 27-759 limits assumed): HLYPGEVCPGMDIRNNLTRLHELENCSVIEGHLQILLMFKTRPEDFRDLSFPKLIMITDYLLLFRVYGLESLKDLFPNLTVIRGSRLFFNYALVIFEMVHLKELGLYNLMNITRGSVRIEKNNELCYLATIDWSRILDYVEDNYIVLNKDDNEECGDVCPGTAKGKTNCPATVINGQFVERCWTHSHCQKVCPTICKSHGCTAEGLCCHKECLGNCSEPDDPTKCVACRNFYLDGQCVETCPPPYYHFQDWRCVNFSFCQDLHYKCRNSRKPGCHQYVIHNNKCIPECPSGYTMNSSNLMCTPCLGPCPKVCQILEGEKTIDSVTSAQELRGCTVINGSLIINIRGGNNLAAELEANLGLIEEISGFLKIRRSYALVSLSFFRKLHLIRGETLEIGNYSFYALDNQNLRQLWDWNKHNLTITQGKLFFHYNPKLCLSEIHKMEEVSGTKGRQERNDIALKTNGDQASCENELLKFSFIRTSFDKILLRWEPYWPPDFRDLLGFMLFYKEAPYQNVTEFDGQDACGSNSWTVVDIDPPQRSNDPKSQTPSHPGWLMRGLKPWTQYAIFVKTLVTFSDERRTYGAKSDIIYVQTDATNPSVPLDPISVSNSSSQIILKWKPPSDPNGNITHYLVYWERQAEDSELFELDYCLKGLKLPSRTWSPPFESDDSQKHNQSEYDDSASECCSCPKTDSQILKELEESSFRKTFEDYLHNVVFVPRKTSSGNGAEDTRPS
Sequence of Insulin receptor (P15127 764-1383 limits assumed): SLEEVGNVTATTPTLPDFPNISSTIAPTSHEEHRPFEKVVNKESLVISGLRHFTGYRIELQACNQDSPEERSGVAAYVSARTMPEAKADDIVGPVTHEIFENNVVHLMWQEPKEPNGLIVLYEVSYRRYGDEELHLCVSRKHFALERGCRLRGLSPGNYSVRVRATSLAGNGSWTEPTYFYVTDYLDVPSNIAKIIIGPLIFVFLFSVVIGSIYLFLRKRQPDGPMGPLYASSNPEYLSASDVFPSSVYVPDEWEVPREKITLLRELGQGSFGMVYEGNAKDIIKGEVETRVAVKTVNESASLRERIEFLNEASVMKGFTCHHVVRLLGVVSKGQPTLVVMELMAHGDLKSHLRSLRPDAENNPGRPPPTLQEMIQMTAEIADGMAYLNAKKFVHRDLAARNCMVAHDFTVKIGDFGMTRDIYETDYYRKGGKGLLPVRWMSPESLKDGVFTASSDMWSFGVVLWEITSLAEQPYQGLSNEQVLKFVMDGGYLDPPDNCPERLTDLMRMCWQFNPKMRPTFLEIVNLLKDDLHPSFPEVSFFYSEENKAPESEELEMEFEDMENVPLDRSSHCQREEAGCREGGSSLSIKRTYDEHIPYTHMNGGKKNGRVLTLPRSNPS
Sequence of Cytochrome P450 2C9 (P11712 whole entry): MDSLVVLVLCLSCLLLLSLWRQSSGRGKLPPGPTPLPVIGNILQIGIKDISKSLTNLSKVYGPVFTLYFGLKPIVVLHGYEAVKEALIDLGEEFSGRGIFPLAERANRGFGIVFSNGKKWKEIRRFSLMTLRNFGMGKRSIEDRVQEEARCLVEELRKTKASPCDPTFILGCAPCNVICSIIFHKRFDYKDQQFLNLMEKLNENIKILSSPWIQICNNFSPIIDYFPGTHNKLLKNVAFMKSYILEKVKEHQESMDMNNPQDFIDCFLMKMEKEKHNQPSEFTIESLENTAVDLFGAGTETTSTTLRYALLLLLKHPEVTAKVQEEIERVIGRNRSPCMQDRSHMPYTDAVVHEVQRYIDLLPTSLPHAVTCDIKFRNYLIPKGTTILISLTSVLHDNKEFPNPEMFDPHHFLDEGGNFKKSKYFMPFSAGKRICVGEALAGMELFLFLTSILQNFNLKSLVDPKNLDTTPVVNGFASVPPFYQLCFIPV

C=C(CC)C(=O)c1ccc(OCC(=O)O)c(Cl)c1Cl [ETHACRYNIC ACID]
Not Active: IC50 (Cytochrome P450 2C9) | Ki (Cytochrome P450 2C9) | IC50 (Insulin receptor) | IC50 [1] | Ki [1] | IC50 [2] | Ki [2] | IC50 [3] | IC50 [4]

CC(C(=O)O)c1ccc(-c2ccccc2)c(F)c1 (stereo not drawn) [FLURBIPROFEN]
Not Active: IC50 (Cytochrome P450 2C9) | Ki (Cytochrome P450 2C9) | IC50 (Insulin receptor) | IC50 [1] | Ki [1] | IC50 [2] | Ki [2] | IC50 [3] | IC50 [4]

COc1ccccc1OCC(O)COC(N)=O (stereo not drawn) [METHOCARBAMOL]
Not Active: IC50 (Cytochrome P450 2C9) | Ki (Cytochrome P450 2C9) | IC50 (Insulin receptor) | IC50 [1] | Ki [1] | IC50 [2] | Ki [2] | IC50 [3] | IC50 [4]

CC(C(=O)O)c1ccc(CC2CCCC2=O)cc1 (stereo not drawn) [LOXOPROFEN]
Not Active: IC50 (Cytochrome P450 2C9) | Ki (Cytochrome P450 2C9) | IC50 (Insulin receptor) | IC50 [1] | Ki [1] | IC50 [2] | Ki [2] | IC50 [3] | IC50 [4]

CCCCC1C(=O)N(c2ccccc2)N(c2ccccc2)C1=O [PHENYLBUTAZONE]
Not Active: IC50 (Cytochrome P450 2C9) | Ki (Cytochrome P450 2C9) | IC50 (Insulin receptor) | IC50 [1] | Ki [1] | IC50 [2] | Ki [2] | IC50 [3] | IC50 [4]

CCN[C@@H](C)Cc1cccc(C(F)(F)F)c1 [DEXFENFLURAMINE]
Not Active: IC50 (Cytochrome P450 2C9) | Ki (Cytochrome P450 2C9) | IC50 (Insulin receptor) | IC50 [1] | Ki [1] | IC50 [2] | Ki [2] | IC50 [3] | IC50 [4]

COc1ccccc1OCC(O)CO (stereo not drawn) [GUAIFENESIN]
Not Active: IC50 (Insulin receptor) | IC50 [1] | Ki [1] | IC50 [2] | Ki [2] | IC50 [3] | IC50 [4]

CCC(=O)O[C@H]1[C@H](O[C@@H]2[C@@H](C)[C@H](O[C@H]3C[C@@](C)(OC)[C@@H](O)[C@H](C)O3)[C@@H](C)C(=O)O[C@H](CC)[C@@](C)(O)[C@H](O)[C@@H](C)C(=O)[C@H](C)C[C@@]2(C)O)O[C@H](C)C[C@@H]1N(C)C [ERYTHROMYCIN PROPIONATE]
Not Active: IC50 (Cytochrome P450 2C9) | Ki (Cytochrome P450 2C9) | IC50 (Insulin receptor) | IC50 [1] | Ki [1] | IC50 [2] | Ki [2] | IC50 [3] | IC50 [4]

C=C1/C(=C\C=C2/CCC[C@]3(C)[C@@H]([C@H](C)CCCC(C)C)CC[C@@H]23)C[C@@H](O)C[C@@H]1O [ALFACALCIDOL]
Not Active: IC50 (Cytochrome P450 2C9) | Ki (Cytochrome P450 2C9) | IC50 (Insulin receptor) | IC50 [1] | Ki [1] | IC50 [2] | Ki [2] | IC50 [3] | IC50 [4]

CS(=O)(=O)OCCCCOS(C)(=O)=O [BUSULFAN]
Not Active: IC50 (Cytochrome P450 2C9) | Ki (Cytochrome P450 2C9) | IC50 (Insulin receptor) | IC50 [1] | Ki [1] | IC50 [2] | Ki [2] | IC50 [3] | IC50 [4]

C[C@]12CCC(=O)C=C1CC[C@@H]1[C@@H]2[C@@H](O)C[C@@]2(C)[C@H]1CC[C@]2(O)C(=O)CO [HYDROCORTISONE]
Not Active: IC50 (Cytochrome P450 2C9) | Ki (Cytochrome P450 2C9) | IC50 (Insulin receptor) | IC50 [1] | Ki [1] | IC50 [2] | Ki [2] | IC50 [3] | IC50 [4]

POLYVINYL ALCOHOL
Not Active: IC50 (Cytochrome P450 2C9) | Ki (Cytochrome P450 2C9) | IC50 (Insulin receptor) | Ki (Insulin receptor) | IC50 [1] | Ki [1] | IC50 [2] | Ki [2] | IC50 [3] | Ki [3] | IC50 [4] | Ki [4]

COBALT(II) ACETYLACETONATE
Not Active: IC50 (Cytochrome P450 2C9) | Ki (Cytochrome P450 2C9) | IC50 (Insulin receptor) | Ki (Insulin receptor) | IC50 [1] | Ki [1] | IC50 [2] | Ki [2] | IC50 [3] | Ki [3] | IC50 [4] | Ki [4]

Cc1cn[nH]c1 [FOMEPIZOLE]
Not Active: IC50 (Insulin receptor) | IC50 [1] | Ki [1] | IC50 [2] | Ki [2] | IC50 [3] | IC50 [4]

Source: ChEMBL document CHEMBL1909046, “DrugMatrix in vitro pharmacology data”
